From US5843339A, “Phosphites and their production and use” (Sumitomo Chemical Company, Limited, priority 1995, dated 1998)

What was measured:
[1] = Heat stability test of linear low-density polyethylene: processing stability (gel build-up time on kneading); conditions: 0.1 parts test compound per 100 parts LLDPE + 0.1 parts hydrotalcite; pellets extruded at 250° C., kneaded under nitrogen at 240° C., 100 rpm, laboplasto mill; time to maximum torque
Description: Heat stability test of linear low-density polyethylene
Using a 30 mm .phi. mono axial extruder, the above formulation was extruded into pellets at 250° C. The resultant pellets were kneaded under a nitrogen atmosphere at 240° C., 100 rpm, using a laboplasto mill, and the time required for a torque value due to crosslinking to reach a maximum value (gel build-up time, minute) was measured. The results are shown in Table 1 as "processing stability".
The longer the gel build-up time, the more crosslinking on kneading is inhibited and the better the processing stability becomes.

[2] = Dispersion properties: visual transparency of press-molded sheet; format: physicochemical; design: key: .circleincircle.: Good; .largecircle.: Slightly good; Δ: Slightly opaque; X: Opaque; conditions: pellets press-molded at 250° C., sheet of 1 mm thickness
Description: The resultant pellets were press-molded at 250° C. to obtain a sheet having a thickness of 1 mm, and transparency of this sheet was visually evaluated. The results are shown in Table 1 as "dispersion properties".
The better the transparency, the better the dispersion properties in the polymer become.
In Table 1, dispersion properties are indicated according to the following criteria.

[3] = Hydrolysis resistance: same gel build-up test with test compound stored in a thermo-hygrostat; format: physicochemical; conditions: test compound allowed to stand in thermo-hygrostat (40° C., 80%) for 7 days, then same test as processing stability
Description: Using a test compound which was allowed to stand in a thermo-hygrostat (40° C., 80%) for 7 days, the same test was conducted and the hydrolytic stability of the compound was evaluated. The results are shown in Table 1 as "hydrolysis resistance".
The processing stability of the hydrolyzed compound is deteriorated. Therefore, the better the processing stability after treatment, the better the hydrolysis resistance becomes.

SMILES	Processing stability (gel build-up time) [1] [min]	Dispersion properties (transparency of sheet, visually evaluated) [2]	Hydrolysis resistance (gel build-up time after treatment of the test compound) [3] [min]
Cc1cc(CCC(=O)OCCOp2oc3c(C(C)(C)C)cc(C(C)(C)C)cc3c3cc(C(C)(C)C)cc(C(C)(C)C)c3o2)cc(C(C)(C)C)c1O [KA-1, 3-(3-t-butyl-4-hydroxy-5-methylphenyl)propionic acid 2-[(2,4,8,10-tetra-t-butyldibenzo[d,f][1,3,2]dioxaphosphepin-6-yl)oxy]ethyl]	21	.circleincircle.	21
Cc1cc(Cc2cc(C)cc(C(C)(C)C)c2OP2Oc3c(cc(C)cc3C(C)(C)C)Cc3cc(C)cc(C(C)(C)C)c3O2)c(O)c(C(C)(C)C)c1 [Compound P-4, 2-[2-(4,8-di-t-butyl-2,10-dimethyl-12H-dibenzo[d,g][1,3,2]dioxaphosphosin-6-yl)oxy-3-t-butyl-5-methylbenzyl]-6-t-butyl-4-methylphenol]	15	.largecircle.	15
Cc1cc2c(c(C(C)(C)C)c1)OP(OCCOC(=O)CCc1cc(C)c(O)c(C(C)(C)C)c1)Oc1c(cc(C)cc1C(C)(C)C)C2 [Compound P-3, 2-[3-(3-t-butyl-4-hydroxy-5-methyphenyl)propionyloxy]ethyl 2,2'-methylenebis(6-t-butyl-4-methylphenyl)phosphite]	16	.largecircle.	16
CC(C)(C)c1ccc(OP(Oc2ccc(C(C)(C)C)cc2C(C)(C)C)Oc2ccc(C(C)(C)C)cc2C(C)(C)C)c(C(C)(C)C)c1 [Compound P-2, tris(2,4-di-t-butylphenyl)phosphite]	7	X	4
CC(C)(C)c1ccc(OP2OCC3(CO2)COP(Oc2ccc(C(C)(C)C)cc2C(C)(C)C)OC3)c(C(C)(C)C)c1 (stereo not drawn) [Compound P-1, bis(2,4-di-t-butylphenyl)pentaerythritol diphosphite]	7	X	7
